Test results taken from patent publication US6780397B2, “Biomolecule conjugation strategy using novel water-soluble phosphine-based chelating agents” (Curators of the University of Missouri, priority 1998, dated 2004).

Experiment: Stability of —PH2 compounds under storage and reaction conditions
Format: physicochemical
Excerpt: As a result of working with the Br(CH2)3 PH2 intermediate, it was recognized that the intermediate was unexpectedly stable under a variety of storage and reaction conditions.
Furthermore, the reactivity of the —PH2 groups in these compounds toward molecules containing a wide spectrum of functional groups (including carboxylic acids, amines, thiols, and proteins) was remarkably low or non-measurable.

Row | stability to reaction conditions of solid phase peptide synthesis (HBTU, piperidine, solutions in DMF, trifluoroacetic acid wash) | oxidation of —PH2 groups (during SPPS and analysis) | stability profile (wider range of chemical conditions than used with the Br(CH2)3PH2 intermediate) | SMILES | stability under storage and reaction conditions (variety of solvents, wide pH range and temperature range)
1 | stable | resistant to oxidation | much improved stability profile | O=C(O)CCCCC(CCSCCCP)SCCCP (stereo not shown) [(PH2)2S2—COOH, H2P(CH2)3SCH2CH2CH((CH2)4COOH)S(CH2)3PH2] | –
2 | – | – | – | PCCCBr.[HH] [Br(CH2)3 PH2, 3-bromo-propyl phosphine hydride] | reasonably stable
